Source: patent publication US7504398B2, “Substituted-4-(pyrrolo pyrimidin-6-yl)benzenesulphonamide derivatives” (Laboratorios Almirall S.A., priority 2002, dated 2009)

Key:
hA2B receptors = molecular target: T1, hA2B receptors (Homo sapiens, UniProt P29275); experiment: Adenosine 2B receptor subtype competition radioligand binding; settings: membranes from hA2B receptors transfected to HEK293 cells, [3H]DPCPX as radioligand, 30 min at 25° C.; read-out: IC50 A2B
T1 construct: purchased Receptor Biology, Inc. (USA); host or cells: HEK293
T1 sequence (P29275 1-332): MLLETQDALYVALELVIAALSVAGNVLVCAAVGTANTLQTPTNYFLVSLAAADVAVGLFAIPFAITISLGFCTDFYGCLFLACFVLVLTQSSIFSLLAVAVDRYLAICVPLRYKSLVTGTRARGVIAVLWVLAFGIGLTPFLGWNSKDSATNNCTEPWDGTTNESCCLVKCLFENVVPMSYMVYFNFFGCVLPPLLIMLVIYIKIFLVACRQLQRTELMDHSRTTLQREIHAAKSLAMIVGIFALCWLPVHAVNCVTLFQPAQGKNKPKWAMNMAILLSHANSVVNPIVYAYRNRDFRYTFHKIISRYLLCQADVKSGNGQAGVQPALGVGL
Protocol: Adenosine 2B Receptor Subtype Competition Radioligand Binding
Human membranes from recombinant A2B receptors were purchased from Receptor Biology, Inc.(USA).
Competition assays were carried out by incubation of membranes from hA2B receptors transfected to HEK293 cells, [^3H]DPCPX as radioligand, buffer (50 mM Tris-HCl (pH 6.5), 10 mM MgCl2, 1 mM EDTA, 0.1 mM benzamidine, 2 units/ml adenosine deaminase), and unlabelled ligand in a total volume of 0.1 ml for 30 min at 25° C. NECA was used to determinate non-specific binding. Filter over Schleicher&Schuell GF/52 filters (pre-soaked 0.5% polyethylenyimine) in a Brandel cell harvester. Unbound radioligand was removed with 4×2 ml ice-cold 50 mM Tris-Hcl (pH 6.5).

hA2A receptors = molecular target: T2, hA2A receptors (Homo sapiens, UniProt P29274); experiment: Adenosine 2A receptor subtype competition radioligand binding; settings: membranes from hA2A receptors transfected to HEK293 cells, [3H]ZM241385 as radioligand, 90 min at 25° C.; read-out: IC50 A2A
T2 construct: purchased Receptor Biology, Inc. (USA); host or cells: HEK293
T2 sequence (P29274 whole entry): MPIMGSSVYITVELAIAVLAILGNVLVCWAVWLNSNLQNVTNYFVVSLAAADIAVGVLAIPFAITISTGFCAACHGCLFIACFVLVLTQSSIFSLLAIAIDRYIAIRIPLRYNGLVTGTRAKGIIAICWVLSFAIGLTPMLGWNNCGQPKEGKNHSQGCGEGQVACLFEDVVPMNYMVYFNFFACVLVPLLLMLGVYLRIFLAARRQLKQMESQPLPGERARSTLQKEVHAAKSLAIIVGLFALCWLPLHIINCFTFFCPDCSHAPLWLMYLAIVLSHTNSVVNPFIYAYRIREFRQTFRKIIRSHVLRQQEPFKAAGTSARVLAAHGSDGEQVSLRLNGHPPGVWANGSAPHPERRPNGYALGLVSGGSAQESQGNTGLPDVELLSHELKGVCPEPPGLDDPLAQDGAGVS
Protocol: Adenosine 2A Receptor Subtype Competition Radioligand Binding
Human membranes from recombinant A2A receptors were purchased from Receptor Biology, Inc. (USA).
Competition assays were carried out by incubation of membranes from hA2A receptors transfected to HEK293 cells, [^3H]ZM241385 as radioligand, buffer (50 mM Tris-HCl (pH 7.4), 10 mM MgCl2, 1 mM EDTA, 2 units/ml adenosine deaminase), and unlabelled ligand in a total volume of 0.2 ml for 90 min at 25° C. NECA was used to determinate non-specific binding. Filter over Schleicher&Schuell GF/52 filters (pre-soaked 0.5% polyethylenyimine) in a Brandel cell harvester. Unbound radioligand was removed with 3×3 ml ice-cold 50 mM Tris-Hcl 50 (pH 7.4), 0.9% NaCl.

IC50 (hA2B receptors)	IC50 (hA2A receptors)	Structure (SMILES)
18 nM	–	COc1ccc(NS(=O)(=O)c2ccc(-c3cc4c([nH]3)c(=O)n(C)c(=O)n4C)cc2)cn1 [Example 36, 4-(1,3-Dimethyl-2,4dioxo-2,3,4,5-tetrahydro-1H-pyrrolo[3,2-d]pyrimidin-6-yl)-N-(6-methoxypyridin-3-yl)benzenesulphonamide]
14 nM	–	Cn1c(=O)c2[nH]c(-c3ccc(S(=O)(=O)NCCc4ccccn4)cc3)cc2n(C)c1=O [Example 37, 4-(1,3-Dimethyl-2,4-dioxo-2,3,4,5-tetrahydro-1H-pyrrolo[3,2-d]pyrimidin-6-yl)-N-(2-pyridin-2-ylethyl)benzenesulphonamide]
12 nM	75 nM	Cn1c(=O)c2[nH]c(-c3ccc(S(=O)(=O)Nc4ccccn4)cc3)cc2n(C)c1=O [Example 38, 4-(1,3-Dimethyl-2,4-dioxo-2,3,4,5-tetrahydro-1H-pyrrolo[3,2-d]pyrimidin-6-yl)-N-pyridin-2-ylbenzenesulphonamide]
17 nM	–	CCCn1c(=O)c2[nH]c(-c3ccc(S(=O)(=O)NCCc4ccccn4)cc3)cc2n(C)c1=O [Example 132, 4-(1-Methyl-2,4-dioxo-3-propyl-2,3,4,5-tetrahydro-1H-pyrrolo[3,2-d]pyrimidin-6-yl)-N-(2-pyridin-2-ylethyl)benzenesulphonamide]
17 nM	–	Cn1c(=O)c2[nH]c(-c3ccc(S(=O)(=O)NCCOc4ccccn4)cc3)cc2n(C)c1=O [Example 172, 4-(1,3-Dimethyl-2,4-dioxo-2,3,4,5-tetrahydro-1H-pyrrolo[3,2-d]pyrimidin-6-yl)-N-[2-(pyridin-2-yloxy)ethyl]benzenesulfonamide]
5 nM	–	COc1cccc(OCCNS(=O)(=O)c2ccc(-c3cc4c([nH]3)c(=O)n(C)c(=O)n4C)cc2)n1 [Example 173, 4-(1,3-Dimethyl-2,4-dioxo-2,3,4,5-tetrahydro-1H-pyrrolo[3,2-d]pyrimidin-6-yl)-N-[2-(6-methoxypyridin-2-yloxy)ethyl]benzenesulfonamide]

More lines, now with the values behind:

Structure (SMILES)	IC50 (hA2B receptors)	IC50 (hA2A receptors)
Cn1c(=O)c2[nH]c(-c3ccc(S(=O)(=O)N4CCN(Cc5ccccc5)CC4)cc3)cc2n(C)c1=O [Example 1, 6-[4-(4-Benzylpiperazine-1-sulphonyl)phenyl]-1,3-dimethyl-1,5-dihydropyrrolo[3,2-d]pyrimidine-2,4-dione]	16 nM	–
Cn1c(=O)c2[nH]c(-c3ccc(S(=O)(=O)N4CCN(Cc5cccc(F)c5)CC4)cc3)cc2n(C)c1=O [Example 3, 6-{4-[4-(3-Fluorobenzyl)piperazine-1-sulphonyl]phenyl}-1,3-dimethyl-1,5-dihydropyrrolo[3,2-d]pyrimidine-2,4-dione]	7 nM	–
Cn1c(=O)c2[nH]c(-c3ccc(S(=O)(=O)N4CCN(Cc5ccc(Cl)s5)CC4)cc3)cc2n(C)c1=O [Example 18, 6-{4-[4-(5-Chlorothiophen-2-ylmethyl)piperazine-1-sulphonyl]phenyl}-1,3-dimethyl-1,5-dihydropyrrolo[3,2-d]pyrimidine-2,4-dione]	4 nM	85 nM
CCn1c(=O)c2[nH]c(-c3ccc(S(=O)(=O)N4CCN(Cc5ccc(Cl)s5)CC4)cc3)cc2n(CC)c1=O [Example 59, 6-{4-[4-(5-Chlorothiophen-2-ylmethyl)piparazine-1-sulphonyl]phenyl}-1,3-diethyl-1,5-dihydropyrrolo[3,2-d]pyrimidine-2,4dione]	–	28 nM
CCn1c(=O)c2[nH]c(-c3ccc(S(=O)(=O)NC4CCN(Cc5ccc(F)cc5)CC4)cc3)cc2n(CC)c1=O [Example 69, 4-(1,3-Diethyl-2,4-dioxo-2,3,4,5-tetrahydro-1H-pyrrolo[3,2-d]pyrimidin-6-yl)-N-[1-(4-fluorobenzyl)piperidin-4yl]benzenesulphonamide]	–	84 nM
CCCn1c(=O)c2[nH]c(-c3ccc(S(=O)(=O)NC4CCN(Cc5ccccc5)CC4)cc3)cc2n(CCC)c1=O [Example 97, N-(1-Benzylperidin-4-yl)-4-(2,4-dioxo-1,3-dipropyl-2,3,4,5-tetrahydro-1H-pyrrolo[3,2-d]pyrimidin-6-yl)benzenesulphonamide]	–	60 nM
CCCn1c(=O)c2[nH]c(-c3ccc(S(=O)(=O)N4CCN(Cc5ccc(F)cc5)CC4)cc3)cc2n(C)c1=O [Example 107, 6-{4-[4-(4-Fluorobenzyl)piperazine-1-sulphonyl]phenyl}-1-methyl-3-propyl-1,5-dihydropyrrolo[3,2-d]pyrimidine-2,4-dione]	9 nM	–
CCCn1c(=O)c2[nH]c(-c3ccc(S(=O)(=O)N4CCN(Cc5ccc6c(c5)OCO6)CC4)cc3)cc2n(C)c1=O [Example 118, 6[4-(4-Benzol[1,3]dioxol-5-ylmethylpiperazine-1-sulphonyl)phenyl]-1-methyl-3-propyl-1,5-dihydropyrrolo[3,2-d]pyrimidine-2,4-dione]	6 nM	–
CCCn1c(=O)c2[nH]c(-c3ccc(S(=O)(=O)N4CCN(c5ccccn5)CC4)cc3)cc2n(C)c1=O [Example 126, 1-Methyl-3-propyl-6-[4-(4-pyridin-2-yipiperazine-1-sulphonyl)phenyl]-1,5-dihydropyrrolo[3,2-d]pyrimidin-2,4-dione]	12 nM	–
